Experimental data reported in ChEMBL document CHEMBL1201862, “PubChem BioAssay data set” (2004).
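Results reflect a 48-hour exposure of cells in 96-well plates to compound at five concentrations. GI50: concentration for 50% inhibition of growth.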 Active and inactive are the calls of the source. No stated cut-off is given here; in the data, active = GI50 up to about 1.1 µM and inactive = higher.

Assays:
Assay in all cases: growth of human tumour cells (NCI), 48 h
[1] = tested on: HL-60
[2] = tested on: Hs-578T
[3] = tested on: SNB-19
[4] = tested on: NCI-H522
[5] = tested on: KM12
[6] = tested on: M14
[7] = tested on: 786-0
[8] = tested on: COLO 205
[9] = tested on: K562
[10] = tested on: OVCAR-5
[11] = tested on: A549
[12] = tested on: HCT-116
[13] = tested on: BT-549
[14] = tested on: OVCAR-3
[15] = tested on: CCRF-CEM
[16] = tested on: HOP-62
[17] = tested on: SK-MEL-28
[18] = tested on: UACC-257
[19] = tested on: U-251
[20] = tested on: NCI-H226
[21] = tested on: SK-OV-3
[22] = tested on: HCT-15
[23] = tested on: RPMI-8226
[24] = tested on: NCI-H23
[25] = tested on: HCC 2998
[26] = tested on: DU-145
[27] = tested on: ACHN
[28] = tested on: OVCAR-4
[29] = tested on: SF-539
[30] = tested on: SR
[31] = tested on: TK-10
[32] = tested on: SK-MEL-5
[33] = tested on: IGROV-1
[34] = tested on: MDA-MB-231
[35] = tested on: OVCAR-8
[36] = tested on: SN12C
[37] = tested on: NCI-H460
[38] = tested on: MCF7
[39] = tested on: CAKI-1
[40] = tested on: EKVX
[41] = tested on: RXF 393
[42] = tested on: SF-268
[43] = tested on: MDA-MB-435
[44] = tested on: SK-MEL-2
[45] = tested on: NCI/ADR-RES
[46] = tested on: SW-620
[47] = tested on: T47D
[48] = tested on: SNB-75
[49] = tested on: MOLT-4
[50] = tested on: HT-29
[51] = tested on: MDA-N
[52] = tested on: Malme-3M
[53] = tested on: SF-295
[54] = tested on: UACC-62
[55] = tested on: LOX IMVI
[56] = tested on: PC-3
[57] = tested on: A498
[58] = tested on: UO-31

Compound: Cc1c2cnccc2c(C)c2c1[nH]c1ccc(O)cc12
- GI50 [1]: 1.05 µM (active)
- GI50 [2]: > 10 µM (inactive)
- GI50 [3]: 3.21 µM (inactive)
- GI50 [4]: 2.82 µM (inactive)
- GI50 [5]: 962 nM (active)
- GI50 [6]: 1.57 µM (inactive)
- GI50 [7]: 241 nM (active)
- GI50 [8]: 2.68 µM (inactive)
- GI50 [9]: 3.17 µM (inactive)
- GI50 [10]: 2.4 µM (inactive)
- GI50 [11]: 1.52 µM (inactive)
- GI50 [12]: 796 nM (active)
- GI50 [13]: 6.01 µM (inactive)
- GI50 [14]: 1.13 µM (inactive)
- GI50 [15]: 740 nM (active)
- GI50 [16]: 1.02 µM (active)
- GI50 [17]: 3.01 µM (inactive)
- GI50 [18]: 2.73 µM (inactive)
- GI50 [19]: 2.02 µM (inactive)
- GI50 [20]: 328 nM (active)
- GI50 [21]: 6.58 µM (inactive)
- GI50 [22]: 971 nM
- GI50 [23]: 1.59 µM (inactive)
- GI50 [24]: 1.57 µM (inactive)
- GI50 [25]: 1.57 µM (inactive)
- GI50 [26]: 1.64 µM (inactive)
- GI50 [27]: 1.32 µM (inactive)
- GI50 [28]: 2.33 µM (inactive)
- GI50 [29]: 1.07 µM (active)
- GI50 [30]: 310 nM (active)
- GI50 [31]: 3.91 µM (inactive)
- GI50 [32]: > 10 µM (inactive)
- GI50 [33]: 1.85 µM (inactive)
- GI50 [34]: 1.57 µM (inactive)
- GI50 [35]: 607 nM (active)
- GI50 [36]: 1.12 µM (inactive)
- GI50 [37]: 458 nM (active)
- GI50 [38]: 914 nM (active)
- GI50 [39]: 1.43 µM (inactive)
- GI50 [40]: 2.88 µM (inactive)
- GI50 [41]: 1.53 µM (inactive)
- GI50 [42]: 1.01 µM (active)
- GI50 [43]: 1.78 µM (inactive)
- GI50 [44]: 6.25 µM (inactive)
- GI50 [45]: 693 nM (active)
- GI50 [46]: 989 nM (active)
- GI50 [47]: 5.92 µM (inactive)
- GI50 [48]: 1.87 µM (inactive)
- GI50 [49]: 498 nM (active)
- GI50 [50]: 1.51 µM (inactive)
- GI50 [51]: 2.79 µM (inactive)
- GI50 [52]: 1.35 µM (inactive)
- GI50 [53]: 1.06 µM (active)
- GI50 [54]: 7.76 µM (inactive)
- GI50 [55]: 342 nM (active)
- GI50 [56]: 2.15 µM (inactive)

Compound: CCCCCCCCCCCCOC1C(COCCN2CCCCC2)OC2OC(C)(C)OC21 (stereo unspecified)
- GI50 [1]: 1.24 µM (inactive)
- GI50 [2]: 2 µM (inactive)
- GI50 [3]: 2.5 µM (inactive)
- GI50 [4]: 1.59 µM (inactive)
- GI50 [5]: 1640 nM (inactive)
- GI50 [6]: 1.63 µM (inactive)
- GI50 [7]: 1730 nM (inactive)
- GI50 [8]: 1.66 µM (inactive)
- GI50 [9]: 1.11 µM (active)
- GI50 [10]: 1.85 µM (inactive)
- GI50 [11]: 6.58 µM (inactive)
- GI50 [12]: 1670 nM (inactive)
- GI50 [13]: 2.21 µM (inactive)
- GI50 [14]: 2.5 µM (inactive)
- GI50 [15]: 1100 nM (active)
- GI50 [16]: 1.84 µM (inactive)
- GI50 [17]: 1.82 µM (inactive)
- GI50 [18]: 1.74 µM (inactive)
- GI50 [19]: 2.02 µM (inactive)
- GI50 [20]: 3990 nM (inactive)
- GI50 [21]: 4.08 µM (inactive)
- GI50 [22]: 1790 nM
- GI50 [23]: 1.52 µM (inactive)
- GI50 [24]: 2.47 µM (inactive)
- GI50 [25]: 1.64 µM (inactive)
- GI50 [26]: 10 µM (inactive)
- GI50 [27]: 2.12 µM (inactive)
- GI50 [29]: 1.76 µM (inactive)
- GI50 [30]: < 10 nM (active)
- GI50 [31]: 1.83 µM (inactive)
- GI50 [32]: 1.58 µM (inactive)
- GI50 [57]: 14.8 µM (inactive)
- GI50 [33]: 1.83 µM (inactive)
- GI50 [34]: 1.91 µM (inactive)
- GI50 [35]: 1800 nM (inactive)
- GI50 [36]: 2.21 µM (inactive)
- GI50 [37]: 1900 nM (inactive)
- GI50 [38]: 1730 nM (inactive)
- GI50 [39]: 1.73 µM (inactive)
- GI50 [58]: 1.59 µM (inactive)
- GI50 [41]: 1.7 µM (inactive)
- GI50 [42]: 2.67 µM (inactive)
- GI50 [43]: 1.76 µM (inactive)
- GI50 [44]: 1.73 µM (inactive)
- GI50 [45]: 4300 nM (inactive)
- GI50 [46]: 1770 nM (inactive)
- GI50 [47]: 1.94 µM (inactive)
- GI50 [49]: 1530 nM (inactive)
- GI50 [50]: 1.21 µM (inactive)
- GI50 [51]: 1.53 µM (inactive)
- GI50 [52]: 1.86 µM (inactive)
- GI50 [53]: 1.69 µM (inactive)
- GI50 [54]: 1.84 µM (inactive)
- GI50 [55]: 1550 nM (inactive)
- GI50 [56]: 1.75 µM (inactive)
